Structures are written as SMILES.

The subject of data set [1] is cytomegalovirus. Put plainly: in vitro antiviral evaluation, viral cytopathic effect (CPE) by microscopy after 72 hours. The data set is classed as cell-based. The conditions noted are these: TI column of Table 1 (equals CD50/ED50); 4320 min. The method, then: The compounds prepared in the previous Examples were evaluated in vitro as antiviral agents against cytomegalovirus, as follows.
The herpes virus strain employed was Strain McCrae of type 1 herpes (thymidine kinase positive virus) (HSV-1TK^+). This strain was prepared and titered in MA-104 cells and frozen at -90° C. until use. Also used were strain HF (HSV-1TK^-), strain E194 (HSV-2), NJB strain (MCMV), and strain AD169 (HCMV).
(§1) Continuous passaged MRC-5 cells obtained from the American Type Culture Collection (Bethesda, Md.) were used for testing of herpes-type virus, with growth medium consisting of Minimum Essential Medium (MEM) supplemented with 0.1% NaHCO3 and […] gentamicin.
(§2) To a 96 well microtiter plate containing an established 24 hour monolayer of cells from which the medium has been decanted was added 0.1 mL of varying (one-half log10) concentrations of test compound, which incubated on the cell 15 minutes, after which 0.1 mL of virus in a concentration of 320 cell culture 50% infectious doses (CCID50)/0.1 mL was added. The plate was covered with plastic wrap and incubated at 37° C. The cells were examined microscopically after 72 hours for evidence of cytotoxicity and for viral cytopathic effect (CPE).
Background: Cytopathic effects are the visible damage that an infection or toxin causes in cultured cells.

The subject of data set [2] is MRC-5 cells. Put plainly: evidence of cytotoxicity by microscopy after 72 hours. The class given is cell-based. On the set-up: unit not given beside the values. The conditions noted are these: 37° C., microscopic cytotoxicity. The method, then:
as §1, §2

`Nc1cc2ccncc2c2sc3ccccc3c12` [Compound 1] gave a TI in data set [1] of more than 100. Moreover, the CD50 in data set [2] is more than 10.
